In patent US20220154192A1, “SYSTEM AND METHOD FOR LIGHT-REGULATED OLIGOMERIZATION AND PHASE SEPARATION OF FOLDED DOMAINS AND RNA GRANULE-ASSOCIATED PROTEIN DOMAINS FOR DRUG- BASED SCREENING APPLICATIONS” (The Trustees of Princeton University, priority 2019, published 2022):
Entries after “also recorded” stand apart in the source; their conditions may differ. *1 amine or outer side, *2 acyl side, *3 side chain or, on linkers, in order; H or OH if unused. Where a SMILES comes first, the peptide text is derived from it. Bridges are numbered along the chain shown (N, C = ends). Roman numbers before positions name the chains, in order. [ ]: non-standard residue; d: D form. Actinocin(9to1) = Cc1c2oc3c(C)ccc(C(=O)[*:1])c3nc-2c(C(=O)[*:2])c(N)c1=O; NMeV = CN[C@H](C(=O)O)C(C)C; Sar = CNCC(=O)O

Tests used:
[1] = tested on: opto-SGs (optogenetic stress granules) of G3BP ΔNTF2 Corelets in U2OS cells; assay: G3BP ΔNTF2 Corelet opto-SG intracellular phase diagram; format: cell-based, human
Source text: To quantitatively interrogate the relationship between RBD valence and the threshold protein complex concentration for stress granule formation, the Corelet system described previously (the cores are comprised of a 24-mer ferritin complex coated by iLID molecules, which serves as an oligomerization platform mediated by blue light-stimulated sspB-iLID interactions, where the sspB-iLID is fused to the IDR regions and RBDs of G3BP) can be utilized to quantitatively map valence and concentration-dependent phase diagrams.
Pre-activation and post-activation images of G3BP KO cells stably expressing the indicated fusion proteins were captured with the mCherry (560) channel only to visualize the sspB component without triggering light-induced dimerization with the iLID-mGFP tagged Ferritin core. Cells were activated with a 488-laser using 1% laser power to cause dimerization of iLID and sspB. Activation of cells was achieved by imaging the mCherry and mGFP channels simultaneously using a 6-second frame interval for an area of 120×120 μm2 (1024×1024 pixels) at Nyquist zoom.
(§1) Cell treatment with arsenite to dissociate polysomes Cells were treated by adding sodium arsenite to cell media at a concentration of 400 μM, which is in excess of saturating concentrations for polysome disassembly (Kedersha et al., 2016). […] Inhibition of polysome disassembly by pre-treating with cycloheximide was added to a final concentration of 100 μg/mL (G3BP KO cells expressing indicated fluorescent fusion proteins). Following 30-minutes of incubation, arsenite was added at a concentration of 400 μM. 1-hour later, cells were assessed for formation of stress granules (GFP-G3BP rescue) or activation cycles were performed (Corelets).
Actinomycin D dissolved in DMSO was used to treat G3BP KO cells expressing indicated Corelets at a concentration of 5 μg/mL. Images were taken 12-18 hours after actinomycin D treatment, a time interval during which nucleoli were no longer apparent by bright field observation and the vast majority of mRNA was expected to be degraded. Final concentration of DMSO was 0.5%. For Actinomycin D plus arsenite experiments, arsenite was added at a concentration of 400 μM˜12 hours following actinomycin D treatment and cells were imaged 1-2 hours subsequently. […] Time point was chosen to maximize the time since treatment (i.e. to reduce RNA cells by as much as possible) without extensive lethality from the drug.
In order to determine precise phase threshold boundaries for intracellular phase diagrams, analyzed cells must feature high variability with respect to sspB-mCherry and iLID-mGFP stoichiometries to sample sufficient core concentrations and valencies. In order to achieve a broad concentration range for both components, G3BP KO cells were transduced in 96-well plates (Cellvis) using an arrayed lentivirus approach. In this protocol, rows varied from 2 to 60 μL iLID-GFP-Fe lentivirus; columns, 2 to 60 μL mCherry-sspB-open reading frame (ORF)/ORF-mCherry-sspB lentivirus. G3BP KO cells were plated directly into the arrayed lentivirus to attain ˜25% confluency upon subsequent attachment to the plastic substrate.

stress granules = assay: Arsenite-induced stress granule formation time course; format: cell-based, human; details: arsenite 400 μM
Experimental: as §1

G3BP KO cells = assay: Lethality of drug treatment in cultured cells (qualitative observation); details: arsenite 400 μM; Actinomycin D 5 μg/mL
Experimental: as §1
Actinomycin D dissolved in DMSO was used to treat G3BP KO cells expressing indicated Corelets at a concentration of 5 μg/mL. Images were taken 12-18 hours after actinomycin D treatment, a time interval during which nucleoli were no longer apparent by bright field observation and the vast majority of mRNA was expected to be degraded. Final concentration of DMSO was 0.5%. For Actinomycin D plus arsenite experiments, arsenite was added at a concentration of 400 μM˜12 hours following actinomycin D treatment and cells were imaged 1-2 hours subsequently.

[2] = tested on: stress granule formation in G3BP KO U2OS cells; assay: G3BP rescue / rescue competition of stress granule formation in G3BP KO U2OS cells; format: cell-based, human; details: for rescue of stress granule formation in G3BP KO cells: expressed protein in G3BP KO cells
Experimental: For G3BP rescue competition experiments, an identical arrayed lentivirus approach was used as described in Phase diagram data collection (i.e. 2-60 μL G3BPmCherry and 2-60 μL mGFP-ORF, arrayed 4-wells by 4-wells for 16-wells total of a 96-well plate). G3BP KO cells were plated into lentivirus then combined and passaged 72-hours later.
Live cell confocal microscopy was performed on Day 5 post-transduction. For each condition (GFP-tagged protein of interest), 4 separate experiments (each experiment=1-well/arsenite treatment) were performed on three separate days with numerous technical replicates (fields of view). Live confocal imaging was performed 1-2 hours following arsenite treatment. mCherry and mGFP concentrations were determined similarly as for phase diagrams and manual scoring of stress granule absence or presence was performed. Similar protocols were used to assess rescue in the absence of competition.
The concentration of each cell was determined via manual image segmentation as previously described and absence or presence of stress granules was annotated. To determine a boundary from the data, a support vector machine (SVM) trained using the concentrations of the two components as explanatory variables and the categorical stress granule state as a response variable by applying the fitcsvm( ) function in the MATLAB Statistics and Machine Learning package using the default solver. Briefly, a support vector machine constructs a linear decision surface based on boundary points (‘support vectors’), with the assumption that the data is linearly separable. […]
For each experiment, the concentration of the protein of interest was determined for each cell, and the presence of stress granules was categorized. […] Specifically, the probability density was calculated by binning the concentration distribution using a square root number rule. Within each bin, the probability of having stress granules was calculated as the number of cells with stress granules over the total number of cells in that bin. […]

CAPRIN1 RGG Corelets = assay: CAPRIN1 RGG (RBD) Corelet phase separation after RNA depletion; format: cell-based, human; details: RNA depletion by Actinomycin D
Source text: High valence G3BP RBD nodes (but not dimeric bridges) are sufficient to induce stress granule formation following polysome disassembly, but it is unclear whether this is a unique feature of G3BP or common to RNA-binding nodes that interact with G3BP NTF2. We reasoned that if such NTF2-associated RBPs contribute essential, additive RNA-binding valence to the multi-protein complex, synthetic high valence nodes connected to individual RBDs would nucleate opto-SGs in isolation (i.e. mimic G3BP RBD Corelets). To test this, the RBDs of CAPRIN1 and UBAP2L were oligomerized utilizing the Corelet system, and mapped phase diagrams in both non-treated and arsenite-exposed cells. […] Further, condensate protein composition, P-body attachment, and relative phase thresholds are not determined by the type or number of RNA-binding motifs. […]
In order to determine precise phase threshold boundaries for intracellular phase diagrams, analyzed cells must feature high variability with respect to sspB-mCherry and iLID-mGFP stoichiometries to sample sufficient core concentrations and valencies. […] In this protocol, rows varied from 2 to 60 μL iLID-GFP-Fe lentivirus; columns, 2 to 60 μL mCherry-sspB-open reading frame (ORF)/ORF-mCherry-sspB lentivirus. […]

## O=[As]O [arsenite, sodium arsenite]
[1]; at 0.15 μM Core, arsenite 400 μM, non-stressed cells need valence ~24
  valence required to drive condensation: ~8
Stress granules
  time by which SG number/size peaked: ≤ 45 min
G3BP KO cells
  time after treatment at which cells began to die / treatment was lethal: ~6 h

## G3BP F33W: G3BP variant unable to bind USP10 or CAPRIN1
[2]
  rescue of stress granule formation in G3BP KO cells: rescues SG formation

## G3BP: stress granule nucleating protein, fluorescently tagged, expressed in G3BP KO cells
[2]; G3BP KO U2OS cells, arsenite, read-out: G3BP concentration for rescue of stress granule formation
  EC50: 620 nM

## Cc1c2oc3c(C)ccc(C(=O)N[C@@H]4C(=O)N[C@H](C(C)C)C(=O)N5CCC[C@H]5C(=O)N(C)CC(=O)N(C)[C@@H](C(C)C)C(=O)O[C@@H]4C)c3nc-2c(C(=O)N[C@@H]2C(=O)N[C@H](C(C)C)C(=O)N3CCC[C@H]3C(=O)N(C)CC(=O)N(C)[C@@H](C(C)C)C(=O)O[C@@H]2C)c(N)c1=O [Actinomycin D] (I: T[dV]P[Sar][NMeV] / II: T[dV]P[Sar][NMeV]; ester I:1-I:C, II:1-II:C; linker I:N-II:N via Actinocin(9to1))
[1]; Actinomycin D 5 μg/mL, 12-18 hours, FIG. 15D
  formation of opto-SGs: prevents the formation of opto-SGs; also recorded: disrupts the formation of SGs
CAPRIN1 RGG Corelets
  phase separation of CAPRIN1 RGG Corelets: abrogates phase separation
G3BP KO cells
  time after treatment at which cells began to die / treatment was lethal: 30 to 36 h

## C[C@@H]1C[C@@H]([C@H](O)CC2CC(=O)NC(=O)C2)C(=O)[C@@H](C)C1 [cycloheximide]
[1]; arsenite and cycloheximide, FIG. 15C vs FIG. 15A
  calculated best-fit phase threshold: almost identical to that of nontreated cells
[1]; pre-treatment with cycloheximide 100 μg/mL 30 min, then arsenite 400 μM
  arsenite-driven shift in the opto-SG phase diagram: negated

B1: CAPRIN1: NTF2-interacting RNA-binding stress granule protein (protein, UniProt Q14444 2-709, looked up)
Caprin-1: PSATSHSGSGSKSSGPPPPSGSSGSEAAAGAGAAAPASQHPATGTGAVQTEAMKQILGVIDKKLRNLEKKKGKLDDYQERMNKGERLNQDQLDAVSKYQEVTNNLEFAKELQRSFMALSQDIQKTIKKTARREQLMREEAEQKRLKTVLELQYVLDKLGDDEVRTDLKQGLNGVPILSEEELSLLDEFYKLVDPERDMSLRLNEQYEHASIHLWDLLEGKEKPVCGTTYKVLKEIVERVFQSNYFDSTHNHQNGLCEEEEAASAPAVEDQVPEAEPEPAEEYTEQSEVESTEYVNRQFMAETQFTSGEKEQVDEWTVETVEVVNSLQQQPQAASPSVPEPHSLTPVAQADPLVRRQRVQDLMAQMQGPYNFIQDSMLDFENQTLDPAIVSAQPMNPTQNMDMPQLVCPPVHSESRLAQPNQVPVQPEATQVPLVSSTSEGYTASQPLYQPSHATEQRPQKEPIDQIQATISLNTDQTTASSSLPAASQPQVFQAGTSKPLHSSGINVNAAPFQSMQTVFNMNAPVPPVNEPETLKQQNQYQASYNQSFSSQPHQVEQTELQQEQLQTVVGTYHGSPDQSHQVTGNHQQPPQQNTGFPRSNQPYYNSRGVSRGGSRGARGLMNGYRGPANGFRGGYDGYRPSFSNTPNSGYTQSQFSAPRDYSGYQRDGYQQNFKRGSGQSGPRGAPRGRGGPPRPNRGMPQMNTQQVN
[2]
  rescue of stress granule formation in G3BP KO cells: does not rescue
